Experimental data from paper PMC4156869 (Journal of the American Chemical Society, 2014).

Molecular target: T1, GalK2 (N-acetyl-galactosamine kinase) (Homo sapiens, UniProt Q01415)
T1 sequence (Q01415 1-458): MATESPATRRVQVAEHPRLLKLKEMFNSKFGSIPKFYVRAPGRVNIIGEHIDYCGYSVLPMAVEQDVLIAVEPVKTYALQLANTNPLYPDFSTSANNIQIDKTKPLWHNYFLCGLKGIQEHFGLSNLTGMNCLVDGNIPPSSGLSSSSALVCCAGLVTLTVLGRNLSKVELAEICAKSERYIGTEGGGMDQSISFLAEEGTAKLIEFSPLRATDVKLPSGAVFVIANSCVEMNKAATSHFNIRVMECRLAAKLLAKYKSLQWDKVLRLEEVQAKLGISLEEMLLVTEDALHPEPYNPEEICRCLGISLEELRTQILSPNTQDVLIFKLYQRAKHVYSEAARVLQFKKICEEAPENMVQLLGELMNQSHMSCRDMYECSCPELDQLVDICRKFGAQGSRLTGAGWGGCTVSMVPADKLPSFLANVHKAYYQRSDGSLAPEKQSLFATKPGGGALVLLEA
Assay: […]gamma-ATP phosphorylation, Dowex column, scintillation counting
Type: biochemical
Settings: 40 mM sugar, 5 mM ATP, 10 mM MgCl2, 50 mM Tris HCl pH 8.0, 37 °C

Row | SMILES | [32P]gamma-ATP phosphorylation, Dowex column, scintillation counting
1 | CC(=O)N[C@H]1C(O)O[C@H](CO)[C@H](O)[C@@H]1O (some centres unmarked) [GalNAc] | GalK2 readily phosphorylated both GalNAc and GlcNAc
2 | CC(=O)N[C@H]1C(O)O[C@H](CO)[C@@H](O)[C@@H]1O (some centres unmarked) [GlcNAc] | GalK2 readily phosphorylated both GalNAc and GlcNAc
